Experimental data reported in PubChem BioAssay (NCI).
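Values below derive from 48-hour exposures of cells grown in 96-well plates, with endpoints linearly interpolated between the two concentrations bracketing the appropriate inhibition level. TGI: total growth inhibition.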

How the values were obtained:
Assay in all cases: growth of human tumour cells (NCI), 48 h
[1] = system: 786-0 renal
[2] = system: A498 renal
[3] = system: ACHN renal
[4] = system: M14 melanoma
[5] = system: NCI-H460 lung
[6] = system: RPMI-8226 leukemia
[7] = system: SF-295 CNS
[8] = system: SK-OV-3 ovarian
[9] = system: U251 CNS
[10] = system: UO-31 renal

Structure (SMILES) | TGI [1] | TGI [2] | TGI [3] | TGI [4] | TGI [5] | TGI [6] | TGI [7] | TGI [8] | TGI [9] | TGI [10]
CCCCCCCCCCCCc1ccc(S(=O)(=O)O)cc1.[Zn+2] | > 100 µM | 95.9 µM | > 100 µM | > 100 µM | > 100 µM | > 100 µM | > 100 µM | > 100 µM | > 100 µM | > 100 µM
C=CCc1cc(-c2cc(CC=C)c(O)c(CN(CC)CC)c2)cc(CN(CC)CC)c1O | > 100 µM | > 100 µM | > 100 µM | 23.4 µM | 64.9 µM | > 88.1 µM | > 88 µM | > 100 µM | > 100 µM | 44.3 µM
CCOC(=O)C[n+]1cccc(C2(c3cc4ccccc4[nH]3)OCCO2)c1 | > 100 µM | > 100 µM | > 100 µM | > 100 µM | > 100 µM | > 100 µM | > 100 µM | > 100 µM | > 100 µM | > 100 µM
C=C1c2nc3ccccc3n2C=C(c2ccc(C)cc2)N1c1ccc(C)cc1 | > 100 µM | > 100 µM | > 100 µM | > 100 µM | > 100 µM | > 89.8 µM | > 100 µM | > 100 µM | > 100 µM | > 100 µM
COC(OC)C1OCC(n2cc(F)c(=O)[nH]c2=O)C1O (stereo not given) | > 100 µM | > 100 µM | > 100 µM | > 100 µM | > 100 µM | > 100 µM | > 100 µM | > 100 µM | > 100 µM | > 100 µM
COc1ccc(/C=C/C(=O)c2cc(C(C)(C)C)c(O)c(C(C)(C)C)c2)cc1OC | 27.4 µM | > 79.7 µM | 99.3 µM | > 100 µM | 20.2 µM | 12.8 µM | > 71.1 µM | > 100 µM | 29.8 µM | 57.9 µM
CCOC(=O)c1nc2ccccc2nc1Oc1ccc(C(=O)OC)cc1 | > 100 µM | > 100 µM | > 100 µM | > 100 µM | > 100 µM | > 100 µM | > 100 µM | > 100 µM | > 100 µM | > 100 µM
COc1ccc(NC(=O)CC(=O)n2nc(C)c(N=Nc3cccc(C)c3)c2C)cc1 | > 100 µM | > 100 µM | > 100 µM | > 100 µM | > 100 µM | > 100 µM | > 100 µM | 78.7 µM | > 100 µM | > 100 µM
Cc1ccc(-n2cc(-c3ccc(Cl)cc3)c3c(N/N=C4\SCC(=O)N4C)ncnc32)cc1 | 10.6 µM | 31.3 µM | > 100 µM | 19.5 µM | 43.2 µM | > 100 µM | 9.37 µM | 13.8 µM | 36.5 µM | > 100 µM
O=[N+]([O-])c1ccc(N/N=C/CC(O)(C(F)(F)F)C(F)(F)F)c([N+](=O)[O-])c1 | > 10 µM | > 10 µM | > 10 µM | > 10 µM | 8.35 µM | > 10 µM | > 10 µM | > 10 µM | > 10 µM | > 10 µM
CSc1cc(-c2ccccn2)nc(-c2ccccn2)c1 | 11.4 µM | 2.76 µM | 0.977 µM | 0.335 µM | 1.88 µM | > 100 µM | 11.5 µM | 10.8 µM | 11.7 µM | 1.64 µM
CCOC(=O)c1c(Br)c(-c2ccc(OC)cc2)c(Br)n1C | 73.4 µM | 49.6 µM | > 100 µM | > 100 µM | > 100 µM | > 100 µM | 56.1 µM | > 100 µM | > 100 µM | 89.2 µM
CCCCCc1cc2cc3c(c(O)c2c(=O)[nH]1)C1(CCC3)C(O)=c2c(=O)c3c(=O)cc(OC)c(=O)c=3c(=O)c2=C1O (stereo not given) | 2.69 µM | 4.58 µM | 2.25 µM | 3.33 µM | 3.12 µM | > 18.7 µM | 11 µM | 5.38 µM | 2.61 µM | 1.94 µM
CCO[C@@]1(COCc2ccccc2)OC(=O)C[C@@H]1N1C(=O)OC[C@@H]1c1ccccc1 | > 100 µM | > 100 µM | > 100 µM | > 100 µM | > 100 µM | > 100 µM | > 100 µM | > 100 µM | > 100 µM | > 100 µM
COc1cc(O)c2c(=O)c3c(C)cccc3n(C)c2c1 | > 10 µM | > 10 µM | > 10 µM | > 10 µM | > 10 µM | > 10 µM | > 10 µM | > 10 µM | > 10 µM | > 10 µM
CCOC(=O)c1sc2nc(SC)nc3c2c1NCN3c1ccc(F)c(F)c1 | 12.4 µM | 35.6 µM | > 100 µM | > 100 µM | > 100 µM | > 100 µM | 65.9 µM | 43.5 µM | 30.8 µM | > 63.3 µM
